Experiments:
TBK1 = target: T1, TBK1 (Homo sapiens, UniProt Q9UHD2); test: ADP-Glo Kinase Assay, inhibition activity on TBK1; type: biochemical
T1 construct: purchased Promega V3991
T1 sequence (Q9UHD2 1-729): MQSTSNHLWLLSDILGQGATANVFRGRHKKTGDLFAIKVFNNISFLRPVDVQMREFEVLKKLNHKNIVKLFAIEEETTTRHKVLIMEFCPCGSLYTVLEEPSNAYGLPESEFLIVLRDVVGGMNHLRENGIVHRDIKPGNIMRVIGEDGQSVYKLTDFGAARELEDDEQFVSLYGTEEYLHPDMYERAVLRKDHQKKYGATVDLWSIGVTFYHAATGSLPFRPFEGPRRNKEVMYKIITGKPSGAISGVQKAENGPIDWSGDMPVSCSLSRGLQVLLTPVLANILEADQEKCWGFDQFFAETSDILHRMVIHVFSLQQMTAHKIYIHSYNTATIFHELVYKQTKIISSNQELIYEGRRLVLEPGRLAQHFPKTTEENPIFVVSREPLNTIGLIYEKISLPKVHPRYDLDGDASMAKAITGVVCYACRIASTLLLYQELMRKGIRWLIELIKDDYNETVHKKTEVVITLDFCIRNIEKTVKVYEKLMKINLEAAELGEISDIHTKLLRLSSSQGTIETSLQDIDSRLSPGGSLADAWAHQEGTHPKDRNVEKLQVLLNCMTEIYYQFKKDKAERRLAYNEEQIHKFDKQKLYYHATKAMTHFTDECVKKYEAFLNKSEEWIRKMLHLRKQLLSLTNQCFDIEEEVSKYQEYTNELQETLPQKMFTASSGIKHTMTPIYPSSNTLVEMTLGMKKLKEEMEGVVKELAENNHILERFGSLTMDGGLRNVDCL
Description: (§1) The inhibition activities on TNIK, IKKε and TBK1 were measured by a luminometer, TNIK/IKKε/TBK1 Kinase Enzyme System (Promega, Ca# V4158; Invitrogen, PR8031B, Promega, Ca# V3991) and ADP-Glo Kinase Assay using ADP-Glo™ Kinase Analysis Kit (Promega, Ca# V9101) and a kinase reaction buffer [40 mM Tris(pH 7.5), 20 mM MgCl2, 0.1 mg/mL BSA] in accordance with the manufacturer's protocol.

IKKε = target: T2, IKKε (Homo sapiens, UniProt Q14164); test: ADP-Glo Kinase Assay, inhibition activity on IKKε; type: biochemical
T2 construct: purchased Invitrogen PR8031B
T2 sequence (Q14164 1-716): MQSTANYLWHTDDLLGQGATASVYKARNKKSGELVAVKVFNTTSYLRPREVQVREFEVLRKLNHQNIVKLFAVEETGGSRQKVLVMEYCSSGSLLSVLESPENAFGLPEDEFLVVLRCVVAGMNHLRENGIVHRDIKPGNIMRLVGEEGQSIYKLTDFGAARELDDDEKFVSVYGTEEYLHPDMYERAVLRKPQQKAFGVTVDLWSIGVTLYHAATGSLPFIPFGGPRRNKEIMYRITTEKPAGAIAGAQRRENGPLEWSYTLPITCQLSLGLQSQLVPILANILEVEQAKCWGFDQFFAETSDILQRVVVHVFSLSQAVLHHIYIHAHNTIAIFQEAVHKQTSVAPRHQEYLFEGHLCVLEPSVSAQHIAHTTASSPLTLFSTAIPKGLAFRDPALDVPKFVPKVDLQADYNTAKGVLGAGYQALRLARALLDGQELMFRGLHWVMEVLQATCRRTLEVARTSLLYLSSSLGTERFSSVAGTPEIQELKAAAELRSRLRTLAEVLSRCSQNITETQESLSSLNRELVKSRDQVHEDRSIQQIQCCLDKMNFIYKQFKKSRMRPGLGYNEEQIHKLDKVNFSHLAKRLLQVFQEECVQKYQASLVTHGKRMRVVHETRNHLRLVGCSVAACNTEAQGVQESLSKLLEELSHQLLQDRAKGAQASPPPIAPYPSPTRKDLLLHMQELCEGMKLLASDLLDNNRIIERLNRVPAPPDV
Description: as §1

CC(=O)Nc1ccc(-c2ccnc(Nc3cccc(F)c3)n2)c2c1C(=O)NC2 [Example 163, N-(7-(2-((3-fluorophenyl)amino)pyrimidin-4-yl)-3-oxoisoindolin-4-yl) acetamide]
IC50 (TBK1): 4000 nM
IC50 (IKKε): > 10000 nM

CC(=O)Nc1ccc(-c2ccnc(Nc3cccc(C)c3)n2)c2c1C(=O)NC2 [Example 164, N-(3-oxo-7-(2-(m-tolylamino)pyrimidin-4-yl)isoindolin-4-yl) acetamide]
IC50 (TBK1): 350 nM
IC50 (IKKε): 830 nM

CC(=O)Nc1ccc(-c2ccnc(Nc3ccc(C)cc3)n2)c2c1C(=O)NC2 [Example 165, N-(3-oxo-7-(2-(p-tolylamino)pyrimidin-4-yl)isoindolin-4-yl) acetamide]
IC50 (TBK1): > 10000 nM
IC50 (IKKε): > 10000 nM

CCC(=O)Nc1ccc(-c2ccnc(Nc3cccc(OC)c3)n2)c2c1C(=O)NC2 [Example 166, N-(7-(2-((3-methoxyphenyl)amino)pyrimidin-4-yl)-3-oxoisoindolin-4-yl)propionamide]
IC50 (TBK1): 94 nM
IC50 (IKKε): > 10000 nM

COc1cccc(Nc2nccc(-c3ccc(N(C)C)c4c3CNC4=O)n2)c1 [Example 266, 7-(Dimethylamino)-4-(2-((3-methoxyphenyl)amino)pyrimidin-4-yl)isoindolin-1-one]
IC50 (TBK1): 750 nM
IC50 (IKKε): 1960 nM

CN(C)c1ccc(-c2ccnc(Nc3cccc(F)c3)n2)c2c1C(=O)NC2 [Example 267, 7-(Dimethylamino)-4-(2-((3-fluorophenyl)amino)pyrimidin-4-yl)isoindolin-1-one]
IC50 (TBK1): 3980 nM
IC50 (IKKε): 5510 nM

CCCCNc1ccc(-c2ccnc(Nc3cccc(OC)c3)n2)c2c1C(=O)NC2 [Example 268, 7-(Butylamino)-4-(2-((3-methoxyphenyl)amino)pyrimidin-4-yl)isoindolin-1-one]
IC50 (TBK1): 320 nM
IC50 (IKKε): 880 nM

CCCCN(C)c1ccc(-c2ccnc(Nc3cccc(OC)c3)n2)c2c1C(=O)NC2 [Example 269, 7-(Butyl(methyl)amino)-4-(2-((3-methoxyphenyl)amino)pyrimidin-4-yl)isoindolin-1-one]
IC50 (TBK1): 2550 nM
IC50 (IKKε): 5970 nM

CCCCN(C)c1ccc(-c2ccnc(Nc3cccc(OC)c3)n2)c2c1C(=O)N(C)C2 [Example 270, 7-(Butyl(methyl)amino)-4-(2-((3-methoxyphenyl)amino)pyrimidin-4-yl)-2-methylisoindolin-1-one]
IC50 (TBK1): > 10000 nM
IC50 (IKKε): > 10000 nM

— patent publication US9856216B2, “Compounds as TNIK, IKKε and TBK1 inhibitors and pharmaceutical composition comprising same” (GREEN CROSS CORPORATION, priority 2015, dated 2018)
